Values after ≈ are worked out from the molar mass of the structure shown. Like-named read-outs stand apart in the source and are kept apart here. Some results are limits rather than exact numbers.

The conditions of series [1]: ester bond, chlorobenzene, 1.0 mM, 150.0 °C, 16.0 h.
A further series has as its system E. coli ATCC 25922. Put plainly: CLSI broth dilution MIC determination. It counts as cell-based. The conditions noted are these: Escherichia coli, ATCC25922, E. coli ATCC 25922 (MP-4); read-out: MIC. An outline of the steps:
(§1)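 MICs measured following CLSI broth dilution methodology. The strains tested include macrolide-resistant and multidrug-resistant isolates whose resistance genotypes can be constitutive or inducible.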
In general terms: In broth dilution the organism is exposed to a series of concentrations in liquid medium.

For a further series, the system named is E. coli CTX-M-14. The series is described as follows: CLSI broth dilution MIC determination. Particulars: Escherichia coli, CTXM14, read-out: MIC. It counts as cell-based. An outline of the steps: as §1
The test system of a further series is E. coli NDM-1. The series is described as follows: CLSI broth dilution MIC determination. The series is classed as cell-based. Particulars: Escherichia coli, NDM1, read-out: MIC. The essentials: as §1
Another series relates to E. coli TEM-1. Put plainly: CLSI broth dilution MIC determination. The conditions noted are these: Escherichia coli, TEM1. The series is classed as cell-based. An outline of the steps:
as §1

For the next series, the system named is H. influenzae ATCC49247. The series is described as follows: CLSI broth dilution MIC determination. Particulars: Haemophilus influenzae, read-out: MIC. It counts as cell-based. The essentials:
as §1

A further series has as its system K. pneumoniae TEM-10. Put plainly: CLSI broth dilution MIC determination. Particulars: Klebsiella pneumoniae, TEM10, read-out: MIC. It counts as cell-based.
The subject of another series is S. aureus ATCC 29213. The series is described as follows: CLSI broth dilution MIC determination. It counts as cell-based. The conditions noted are these: Staphylococcus aureus, ATCC29213; S. aureus ATCC 29213 (MP-12); read-out: MIC. The essentials: as §1
For another series, the system named is S. aureus MRSA: USA100. Put plainly: CLSI broth dilution MIC determination. It counts as cell-based. Particulars: Staphylococcus aureus; S. aureus MRSA: USA100 (MP-618 UNT-096); read-out: MIC. The essentials: as §1
Another series relates to S. aureus MRSA: USA300. The series is described as follows: CLSI broth dilution MIC determination. The series is classed as cell-based. Particulars: Staphylococcus aureus; S. aureus MRSA: USA300 (MP-549, msr(a)); read-out: MIC. The essentials: as §1
The next series relates to S. aureus USA600, GISA. The series is described as follows: CLSI broth dilution MIC determination. The series is classed as cell-based. Particulars: Staphylococcus aureus; S. aureus USA600, GISA (MP-619 UNT-120); read-out: MIC. An outline of the steps:
as §1

The subject of a further series is S. aureus erm A genotype. Put plainly: CLSI broth dilution MIC determination. Particulars: Staphylococcus aureus; S. aureus erm A genotype (MP-620 UNT-146); read-out: MIC. The series is classed as cell-based. An outline of the steps: as §1
A further series relates to S. pneumoniae ATCC 49619. The series is described as follows: CLSI broth dilution MIC determination. The series is classed as cell-based. The conditions noted are these: Streptococcus pneumoniae, ATCC49619, S. pneumoniae ATCC 49619 (MP-21); read-out: MIC. An outline of the steps:
as §1

The test system of series [2] is S. pneumoniae erm B + mef A genotype. Put plainly: CLSI broth dilution MIC determination. The series is classed as cell-based. Particulars: Streptococcus pneumoniae. An outline of the steps: as §1
Series [3] deals with S. pneumoniae erm B + tet(M,O) genotype. Put plainly: CLSI broth dilution MIC determination. It counts as cell-based. Particulars: Streptococcus pneumoniae. The essentials: as §1
Series [4] concerns S. pneumoniae mef A genotype (first strain so labelled). The series is described as follows: CLSI broth dilution MIC determination. The series is classed as cell-based. The conditions noted are these: Streptococcus pneumoniae, first strain (MP-626 UNT-038). The essentials: as §1
Series [5] deals with S. pneumoniae mef A genotype (second strain so labelled). The series is described as follows: CLSI broth dilution MIC determination. It counts as cell-based. The conditions noted are these: Streptococcus pneumoniae, second strain (MP-627 UNT-039), read-out: MIC. An outline of the steps:
as §1

For the next series, the system named is S. pyogenes ATCC 19615. Put plainly: CLSI broth dilution MIC determination. The series is classed as cell-based. The conditions noted are these: Streptococcus pyogenes, ATCC19615, S. pyogenes ATCC 19615 (MP-19); read-out: MIC.
Series [6] has as its system S. pyogenes Macrolide-resistant. Put plainly: CLSI broth dilution MIC determination. It counts as cell-based. Particulars: Streptococcus pyogenes, S. pyogenes Macrolide-resistant (MP-625 UNT-014); read-out: MIC.
Another series deals with E. faecalis ATCC 29212. The series is described as follows: CLSI broth dilution MIC determination. The series is classed as cell-based. Particulars: Enterococcus faecalis, ATCC29212, E. faecalis ATCC 29212 (MP-24); read-out: MIC.
In series [7] the test system is E. faecalis Vancomycin-resistant. The series is described as follows: CLSI broth dilution MIC determination. It counts as cell-based. The conditions noted are these: Enterococcus faecalis, E. faecalis Vancomycin-resistant (UNT-039); read-out: MIC.
The test system of the next series is A. baumannii ATCC 19606. The series is described as follows: CLSI broth dilution MIC determination. The series is classed as cell-based. Particulars: Acinetobacter baumannii, ATCC19606; A. baumannii ATCC 19606 (MP-15); read-out: MIC.
Series [8] concerns A. baumannii imipenem-resistant. Put plainly: CLSI broth dilution MIC determination. The series is classed as cell-based. The conditions noted are these: Acinetobacter baumannii, read-out: MIC.
Series [9] deals with A. baumannii chromosomal class C. Put plainly: CLSI broth dilution MIC determination. Particulars: Acinetobacter baumannii, read-out: MIC. It counts as cell-based.
The test system of the next series is A. baumannii IMP-4. Put plainly: CLSI broth dilution MIC determination. The series is classed as cell-based. The conditions noted are these: Acinetobacter baumannii, IMP4, read-out: MIC.
The test system of another series is K. pneumoniae ATCC 10031. The series is described as follows: CLSI broth dilution MIC determination. The series is classed as cell-based. The conditions noted are these: Klebsiella pneumoniae, ATCC10031, K. pneumoniae ATCC 10031 (MP-14); read-out: MIC.
The test system of a further series is K. pneumoniae KPC-2. Put plainly: CLSI broth dilution MIC determination. The conditions noted are these: Klebsiella pneumoniae, KPC2, read-out: MIC. The series is classed as cell-based.
The next series deals with K. pneumoniae SHV-12. Put plainly: CLSI broth dilution MIC determination. The series is classed as cell-based. The conditions noted are these: Klebsiella pneumoniae, SHV12, read-out: MIC.
Another series concerns P. aeruginosa ATCC 27853. Put plainly: CLSI broth dilution MIC determination. Particulars: Pseudomonas aeruginosa, ATCC27853; P. aeruginosa ATCC 27853 (MP-3); read-out: MIC. The series is classed as cell-based.
Series [10] deals with P. aeruginosa HPA101-1477. The series is described as follows: CLSI broth dilution MIC determination. It counts as cell-based. The conditions noted are these: Pseudomonas aeruginosa, HPA1011477, read-out: MIC.
The subject of series [11] is H. influenzae Erythro >4, Azithro 1. The series is described as follows: CLSI broth dilution MIC determination. It counts as cell-based. Particulars: Haemophilus influenzae; read-out: MIC. From the text:
MIC data was collected for the novel macrolides that this platform has produced against over 21 unique strains of B. subtilis, E. coli, S. aureus, S. pneumoniae, and H. influenzae, including several multidrug-resistant strains, with a special focus on macrolide resistant mechanisms (vide supra). […] CLSI standard procedures for broth dilution MIC determination were used. […] These genotypes can be constitutive or inducible.

Molecule `C=C1C(=O)[C@H](C)C[C@@](C)(OC)[C@H](O[C@@H]2O[C@H](C)C[C@H](N(C)C)[C@H]2OC(=O)OC)[C@@H](C)C(=O)C(C)C(=O)O[C@H](CC)[C@@]2(C)OC(=O)N(CCCCN=[N+]=[N-])[C@H]12` (some centres unmarked) had a ring closure, yield of all isomers in series [1] (from C=C(C(=O)[C@H](C)C[C@@](C)(OC)[C@H](O[C@@H]1O[C@H](C)C[C@H](N(C)C)[C@H]1OC(=O)OC)[C@@H](C)C1=C(C)C(=O)OC(C)(C)O1)[C@H]1N(CCCCN=[N+]=[N-])C(=O)O[C@]1(C)[C@H](O)CC) of 23%.

Consider `CC[C@H]1OC(=O)[C@H](C)C(=O)[C@H](C)[C@@H](O[C@@H]2O[C@H](C)C[C@H](N(C)C)[C@H]2OC(=O)OC)[C@](C)(OC)C[C@@H](C)C(=O)[C@H](C)[C@H]2N(CCCCN=[N+]=[N-])C(=O)O[C@]12C`, for which the ring closure, yield of all isomers in series [1] (from CC[C@@H](O)[C@@]1(C)OC(=O)N(CCCCN=[N+]=[N-])[C@@H]1[C@@H](C)C(=O)[C@H](C)C[C@@](C)(OC)[C@H](O[C@@H]1O[C@H](C)C[C@H](N(C)C)[C@H]1OC(=O)OC)[C@@H](C)C1=C(C)C(=O)OC(C)(C)O1, none (thermal, dioxinone to acylketene)) was determined as 52%.

Regarding `C=C1C(=O)[C@H](C)C[C@@](C)(OC)[C@H](O[C@@H]2OC(C)CC(N(C)C)C2O)[C@@H](C)C(=O)[C@@H](C)C(=O)O[C@H](CC)[C@@]2(C)OC(=O)N(CCCCn3cc(-c4cccc(N)c4)nn3)[C@H]12` (some centres unmarked) [FSM-21828], the MIC was over 32 µg/mL in the series with E. coli ATCC 25922; over 32 µg/mL with E. coli CTX-M-14; over 32 µg/mL with E. coli NDM-1; over 32 µg/mL in the series on E. coli TEM-1; 16 µg/mL (≈ 19.4 µM) in the series on H. influenzae ATCC49247; over 32 µg/mL with K. pneumoniae TEM-10. Also, the MIC was 4 µg/mL (≈ 4.85 µM) in the series on S. aureus ATCC 29213; over 32 µg/mL with S. aureus MRSA: USA100; over 32 µg/mL with S. aureus MRSA: USA300; over 32 µg/mL in the series on S. aureus USA600, GISA; over 32 µg/mL in the series with S. aureus erm A genotype; at most 0.0312 µg/mL in the series with S. pneumoniae ATCC 49619. The MIC in series [2] is 32 µg/mL (≈ 38.8 µM); in series [3] it was at most 0.0312 µg/mL; in series [4], 0.0625 µg/mL (≈ 0.0758 µM); in [5] it was 0.5 µg/mL (≈ 0.606 µM); with S. pyogenes ATCC 19615, at most 0.0312 µg/mL; in series [6] it was 0.5 µg/mL (≈ 0.606 µM). Besides, the MIC with E. faecalis ATCC 29212 is 1 µg/mL (≈ 1.21 µM); in series [7], over 32 µg/mL; in the series on A. baumannii ATCC 19606 it was over 32 µg/mL; in series [8] it was over 32 µg/mL; in series [9] it was over 32 µg/mL; in the series with A. baumannii IMP-4, over 32 µg/mL. The MIC with K. pneumoniae ATCC 10031 is 16 µg/mL (≈ 19.4 µM); in the series on K. pneumoniae KPC-2, over 32 µg/mL; in the series with K. pneumoniae SHV-12 it was over 32 µg/mL; in the series on P. aeruginosa ATCC 27853, over 32 µg/mL; in series [10], over 32 µg/mL; in [11], 16 µg/mL (≈ 19.4 µM).

Consider `CC[C@H]1OC(=O)[C@@H](C)C(=O)[C@H](C)[C@@H](O[C@@H]2OC(C)CC(N(C)C)C2O)[C@](C)(OC)C[C@@H](C)C(=O)[C@H](C)[C@H]2N(C/C=C/Cn3cc(-c4cccc(N)c4)nn3)C(=O)O[C@]12C` (some centres unmarked) [FSM-100432], for which the MIC in the series on E. coli ATCC 25922 was over 32 µg/mL; with E. coli CTX-M-14, over 32 µg/mL; in the series on E. coli NDM-1, over 32 µg/mL; against E. coli TEM-1, over 32 µg/mL; in the series with H. influenzae ATCC49247 it was 8 µg/mL (≈ 9.7 µM); in the series with K. pneumoniae TEM-10, over 32 µg/mL. The MIC in the series on S. aureus ATCC 29213 is 1 µg/mL (≈ 1.21 µM); in the series on S. aureus MRSA: USA100 it was over 32 µg/mL; in the series on S. aureus MRSA: USA300, over 32 µg/mL; in the series with S. aureus USA600, GISA, over 32 µg/mL; in the series on S. aureus erm A genotype it was over 32 µg/mL; in the series with S. pneumoniae ATCC 49619, under 0.0312 µg/mL. Also, the MIC in series [2] was 2 µg/mL (≈ 2.42 µM); in series [3], under 0.0312 µg/mL; in [4] it was 0.125 µg/mL (≈ 0.152 µM); in series [5], 0.5 µg/mL (≈ 0.606 µM); in the series with S. pyogenes ATCC 19615, under 0.0312 µg/mL; in [6] it was 0.0625 µg/mL (≈ 0.0758 µM). Also, the MIC with E. faecalis ATCC 29212 is 0.125 µg/mL (≈ 0.152 µM); in series [7], over 32 µg/mL; in the series on A. baumannii ATCC 19606, over 32 µg/mL; in series [8], over 32 µg/mL; in series [9] it was over 32 µg/mL; in the series with A. baumannii IMP-4 it was over 32 µg/mL. In addition, the MIC was 32 µg/mL (≈ 38.8 µM) in the series on K. pneumoniae ATCC 10031; over 32 µg/mL with K. pneumoniae KPC-2; over 32 µg/mL in the series on K. pneumoniae SHV-12; over 32 µg/mL with P. aeruginosa ATCC 27853; over 32 µg/mL in series [10]; 8 µg/mL (≈ 9.7 µM) in series [11].

The values above are taken from patent US10633407B2, “14-membered ketolides and methods of their preparation and use” (President and Fellows of Harvard College, priority 2014, dated 2020).
